From ChEMBL document CHEMBL1687763 (2010)
Values after ≈ are worked out from the molar mass of the structure shown.

Key:
Staphylococcus aureus [1] = assay: Antimicrobial activity against methicillin-resistant Staphylococcus aureus isolate 56 grown on CAMHB media after 48 hrs by tube macrodilution method; conditions: isolate 56, 48 h
Staphylococcus aureus [2] = assay: Antimicrobial activity against methicillin-resistant Staphylococcus aureus isolate 56 after 24 hrs by macrodilution method; conditions: isolate 56, 24 h
Staphylococcus aureus [3] = assay: Antimicrobial activity against methicillin-resistant Staphylococcus aureus isolate 6 by broth microdilution method
Staphylococcus aureus [4] = assay: Antimicrobial activity against methicillin-resistant Staphylococcus aureus isolate 55 grown on brain heart infusion media after 48 hrs by macrodilution method; conditions: isolate 55, 48 h
Staphylococcus aureus [5] = assay: Antimicrobial activity against methicillin-resistant Staphylococcus aureus isolate 55 after 24 hrs by agar dilution method; conditions: isolate 55, 24 h
Staphylococcus aureus [6] = assay: Antimicrobial activity against methicillin-resistant Staphylococcus aureus isolate 55 after 48 hrs by macrodilution method; conditions: isolate 55, 48 h
Staphylococcus aureus [7] = assay: Antimicrobial activity against methicillin-resistant Staphylococcus aureus isolate 55 after 24 hrs by macrodilution method; conditions: isolate 55, 24 h
Staphylococcus aureus [8] = assay: Antimicrobial activity against methicillin-resistant Staphylococcus aureus isolate 1 by broth microdilution method
Staphylococcus aureus [9] = assay: Antimicrobial activity against methicillin-resistant Staphylococcus aureus isolate 56 grown on brain heart infusion media after 48 hrs by macrodilution method; conditions: isolate 56, 48 h
Staphylococcus aureus [10] = assay: Antimicrobial activity against methicillin-resistant Staphylococcus aureus isolate 55 grown on CAMHB media after 48 hrs by tube macrodilution method; conditions: isolate 55, 48 h
Staphylococcus aureus [11] = assay: Antimicrobial activity against methicillin-resistant Staphylococcus aureus isolate 56 after 48 hrs by agar dilution method; conditions: isolate 56, 48 h
Staphylococcus aureus [12] = assay: Antimicrobial activity against methicillin-resistant Staphylococcus aureus isolate 56 after 48 hrs by macrodilution method; conditions: isolate 56, 48 h
Staphylococcus aureus [13] = assay: Antimicrobial activity against glycopeptide-susceptible Staphylococcus aureus NRS3 by tube macrodilution method
Staphylococcus aureus [14] = assay: Antimicrobial activity against methicillin-resistant Staphylococcus aureus isolate 8 by broth microdilution method
Staphylococcus aureus [15] = assay: Antimicrobial activity against methicillin-resistant Staphylococcus aureus isolate 56 after 24 hrs by agar dilution method; conditions: isolate 56, 24 h
Staphylococcus aureus [16] = assay: Antimicrobial activity against methicillin-resistant Staphylococcus aureus isolate 12 by broth microdilution method
Staphylococcus aureus [17] = assay: Antimicrobial activity against methicillin-resistant Staphylococcus aureus isolate 55 after 48 hrs by agar dilution method; conditions: isolate 55, 48 h
Staphylococcus aureus [18] = assay: Antimicrobial activity against heterogenous glycopeptide-intermediate resistant Staphylococcus aureus Mu3-D grown on brain heart infusion media after 48 hrs by tube macrodilution method

CN[C@H](CC(C)C)C(=O)N[C@H]1C(=O)N[C@@H](CC(N)=O)C(=O)N[C@H]2C(=O)N[C@H]3C(=O)N[C@H](C(=O)N[C@H](C(=O)O)c4cc(O)cc(O)c4-c4cc3ccc4O)[C@H](O)c3ccc(c(Cl)c3)Oc3cc2cc(c3O[C@@H]2O[C@H](CO)[C@@H](O)[C@H](O)[C@H]2O[C@H]2C[C@](C)(N)[C@H](O)[C@H](C)O2)Oc2ccc(cc2Cl)[C@H]1O [VANCOMYCIN]
MIC (Staphylococcus aureus [1]): 8 µg/mL (≈ 5.52 µM) | MIC (Staphylococcus aureus [2]): 8 µg/mL (≈ 5.52 µM) | MIC (Staphylococcus aureus [3]): 0.25 µg/mL (≈ 0.173 µM) | MIC (Staphylococcus aureus [4]): 8 µg/mL (≈ 5.52 µM) | MIC (Staphylococcus aureus [5]): 8 µg/mL (≈ 5.52 µM) | MIC (Staphylococcus aureus [6]): 8 µg/mL (≈ 5.52 µM) | MIC (Staphylococcus aureus [7]): 8 µg/mL (≈ 5.52 µM) | MIC (Staphylococcus aureus [8]): 0.25 µg/mL (≈ 0.173 µM) | MIC (Staphylococcus aureus [9]): 8 µg/mL (≈ 5.52 µM) | MIC (Staphylococcus aureus [10]): 8 µg/mL (≈ 5.52 µM) | MIC (Staphylococcus aureus [11]): 8 µg/mL (≈ 5.52 µM) | MIC (Staphylococcus aureus [12]): 8 µg/mL (≈ 5.52 µM) | MIC (Staphylococcus aureus [13]): ≥ 8 µg/mL | MIC (Staphylococcus aureus [14]): 0.25 µg/mL (≈ 0.173 µM) | MIC (Staphylococcus aureus [15]): 8 µg/mL (≈ 5.52 µM) | MIC (Staphylococcus aureus [16]): 0.25 µg/mL (≈ 0.173 µM) | MIC (Staphylococcus aureus [17]): 8 µg/mL (≈ 5.52 µM) | MIC (Staphylococcus aureus [18]): 4 µg/mL (≈ 2.76 µM)
